Values after ≈ are worked out from the molar mass of the structure shown. Where two headings read alike, the source gives them in different places.
Legend:
S. aureus = assay: MIC assay according to CLSI criteria, Example 2, S. aureus strains; assay type: cell-based, Staphylococcus aureus; conditions: Staphylococcus aureus, read-out: MIC
Outline: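 Broth microdilution per CLSI in cation-adjusted Mueller Hinton broth, ~5×10^5 exponential-phase cells per well, aerobic at 37° C for 18 hours; OD600 read at end.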

[1] = test system: methicillin-resistant Staphylococcus aureus (MRSA 01, MRSA 15, MRSA 16); assay: Resistance mutation frequency evaluation, Example 3; assay type: cell-based
P. acnes = assay type: cell-based, Propionibacterium acnes; conditions: for Frequency of mutation/ml: MIC × 4

## CC(=O)O[C@H]1C[C@@]2(C)[C@@H](C[C@@H](O)[C@H]3[C@@]4(C)CC[C@@H](O)[C@@H](C)[C@@H]4CC[C@@]32C)/C1=C(\CCC=C(C)C)C(=O)O [Fusidic acid, fusidic acid]
S. aureus; MRSA, strain MRSA 01
  MIC: 0.125 µg/mL (≈ 0.242 µM)
S. aureus; MRSA, strain MRSA 02
  MIC: 0.5 µg/mL (≈ 0.968 µM)
S. aureus; MRSA, strain MRSA 03
  MIC: 16 µg/mL (≈ 31 µM)
S. aureus; MRSA, strain MRSA 04
  MIC: 0.25 µg/mL (≈ 0.484 µM)
S. aureus; MRSA, strain MRSA 05
  MIC: 0.125 µg/mL (≈ 0.242 µM)
S. aureus; MRSA, strain MRSA 06
  MIC: 0.125 µg/mL (≈ 0.242 µM)
S. aureus; MRSA, strain MRSA 07
  MIC: 0.25 µg/mL (≈ 0.484 µM)
S. aureus; MRSA, strain MRSA 08
  MIC: 0.125 µg/mL (≈ 0.242 µM)
S. aureus; MRSA, strain MRSA 09
  MIC: 0.25 µg/mL (≈ 0.484 µM)
S. aureus; MRSA, strain MRSA 10
  MIC: 1 µg/mL (≈ 1.94 µM)
S. aureus; MRSA, strain MRSA 11
  MIC: 1 µg/mL (≈ 1.94 µM)
S. aureus; MRSA, strain MRSA 12
  MIC: 4 µg/mL (≈ 7.74 µM)
S. aureus; MRSA, strain MRSA 14
  MIC: > 16 µg/mL
S. aureus; MRSA, strain MRSA 16
  MIC: 0.25 µg/mL (≈ 0.484 µM)
S. aureus; MRSA, strain MRSA 18
  MIC: 0.25 µg/mL (≈ 0.484 µM)
S. aureus; MRSA, strain MRSA 19
  MIC: 0.125 µg/mL (≈ 0.242 µM)
S. aureus; MRSA, strain MRSA 20
  MIC: 0.125 µg/mL (≈ 0.242 µM)
S. aureus; MRSA, strain MRSA 21
  MIC: 0.125 µg/mL (≈ 0.242 µM)
S. aureus; MRSA, strain MRSA 23
  MIC: 0.25 µg/mL (≈ 0.484 µM)
S. aureus; MRSA, strain MRSA 24
  MIC: 0.25 µg/mL (≈ 0.484 µM)
S. aureus; MRSA, strain MRSA 25
  MIC: 16 µg/mL (≈ 31 µM)
S. aureus; MRSA, strain MRSA 26
  MIC: 0.5 µg/mL (≈ 0.968 µM)
S. aureus; MRSA, strain MRSA 27
  MIC: 0.25 µg/mL (≈ 0.484 µM)
S. aureus; MRSA, strain MRSA 30
  MIC: 0.125 µg/mL (≈ 0.242 µM)
S. aureus; MRSA, strain MRSA 31
  MIC: 0.25 µg/mL (≈ 0.484 µM)
S. aureus; MRSA, strain MRSA 32
  MIC: 0.5 µg/mL (≈ 0.968 µM)
S. aureus; MRSA, strain MRSA 33
  MIC: 0.5 µg/mL (≈ 0.968 µM)
S. aureus; MRSA, strain MRSA 34
  MIC: 0.25 µg/mL (≈ 0.484 µM)
S. aureus; MRSA, strain MRSA 35
  MIC: 16 µg/mL (≈ 31 µM)
S. aureus; MRSA, strain MRSA 36
  MIC: 8 µg/mL (≈ 15.5 µM)
S. aureus; MRSA, strain MRSA 37
  MIC: 0.5 µg/mL (≈ 0.968 µM)
S. aureus; MRSA, strain MRSA 38
  MIC: 8 µg/mL (≈ 15.5 µM)
S. aureus; MRSA, strain MRSA 39
  MIC: 8 µg/mL (≈ 15.5 µM)
S. aureus; MRSA, strain MRSA 40
  MIC: 0.125 µg/mL (≈ 0.242 µM)
S. aureus; MRSA, strain MRSA 42
  MIC: 0.25 µg/mL (≈ 0.484 µM)
S. aureus; MRSA, strain MRSA 49
  MIC: 0.25 µg/mL (≈ 0.484 µM)
S. aureus; MRSA, strain MRSA 50
  MIC: 0.03 µg/mL (≈ 0.0581 µM)
S. aureus; MRSA, strain MRSA 53
  MIC: 0.25 µg/mL (≈ 0.484 µM)
S. aureus; MRSA, strain MRSA 64
  MIC: 0.25 µg/mL (≈ 0.484 µM)
S. aureus; MRSA, strain MRSA 67
  MIC: 0.25 µg/mL (≈ 0.484 µM)
S. aureus; MRSA, strain MRSA 72
  MIC: 16 µg/mL (≈ 31 µM)
S. aureus; MRSA, strain MRSA 73
  MIC: 0.25 µg/mL (≈ 0.484 µM)
S. aureus; MRSA, strain MRSA 74
  MIC: 0.25 µg/mL (≈ 0.484 µM)
S. aureus; MRSA, strain MRSA 75
  MIC: 0.5 µg/mL (≈ 0.968 µM)
S. aureus; MRSA, strain MRSA 76
  MIC: 0.25 µg/mL (≈ 0.484 µM)
S. aureus; MRSA, strain MRSA 77
  MIC: 16 µg/mL (≈ 31 µM)
S. aureus; MRSA, strain MRSA 79
  MIC: 0.5 µg/mL (≈ 0.968 µM)
S. aureus; MRSA, strain MRSA 81
  MIC: 0.25 µg/mL (≈ 0.484 µM)
S. aureus; MRSA, strain MRSA 85
  MIC: 4 µg/mL (≈ 7.74 µM)
S. aureus; MRSA, strain MRSA 86
  MIC: > 16 µg/mL
S. aureus; MRSA, strain MRSA 87
  MIC: 0.125 µg/mL (≈ 0.242 µM)
S. aureus; MRSA, strain MRSA 88
  MIC: 0.06 µg/mL (≈ 0.116 µM)
S. aureus; MRSA, strain MRSA 90
  MIC: 16 µg/mL (≈ 31 µM)
S. aureus; MRSA, strain MRSA 91
  MIC: 0.25 µg/mL (≈ 0.484 µM)
S. aureus; MRSA, strain MRSA 92
  MIC: 8 µg/mL (≈ 15.5 µM)
S. aureus; MRSA, strain MRSA 94
  MIC: 0.125 µg/mL (≈ 0.242 µM)
S. aureus; MRSA, strain MRSA 95
  MIC: 8 µg/mL (≈ 15.5 µM)
S. aureus; MRSA, strain MRSA 96
  MIC: 0.125 µg/mL (≈ 0.242 µM)
S. aureus; MRSA, strain MRSA 97
  MIC: 8 µg/mL (≈ 15.5 µM)
S. aureus; MRSA, strain MRSA 99
  MIC: 0.125 µg/mL (≈ 0.242 µM)
S. aureus; MRSA, strain MRSA 100
  MIC: 0.125 µg/mL (≈ 0.242 µM)
S. aureus; MRSA, strain MRSA 101
  MIC: 8 µg/mL (≈ 15.5 µM)
S. aureus; MRSA, strain MRSA 103
  MIC: 8 µg/mL (≈ 15.5 µM)
S. aureus; MRSA, strain MRSA 104
  MIC: 0.25 µg/mL (≈ 0.484 µM)
S. aureus; MRSA, strain MRSA 105
  MIC: 0.125 µg/mL (≈ 0.242 µM)
S. aureus; MRSA, strain MRSA 106
  MIC: 0.125 µg/mL (≈ 0.242 µM)
S. aureus; MRSA, strain MRSA 107
  MIC: 0.25 µg/mL (≈ 0.484 µM)
S. aureus; MRSA, strain MRSA 108
  MIC: 4 µg/mL (≈ 7.74 µM)
S. aureus; MRSA, strain MRSA 109
  MIC: 0.25 µg/mL (≈ 0.484 µM)
S. aureus; MRSA, strain MRSA 111
  MIC: 8 µg/mL (≈ 15.5 µM)
S. aureus; MRSA, strain MRSA 113
  MIC: 0.125 µg/mL (≈ 0.242 µM)
S. aureus; MSSA, strain MSSA 01
  MIC: 4 µg/mL (≈ 7.74 µM)
S. aureus; MSSA, strain MSSA 02
  MIC: 4 µg/mL (≈ 7.74 µM)
S. aureus; NEWMAN, strain Newman
  MIC: 0.25 µg/mL (≈ 0.484 µM)
[1]; at MIC×1
  mutational frequency: ≥ 4.10^−5
[1]; at MIC×10
  mutational frequency: 3.10^−7
P. acnes; P. acnes
  frequency of mutation of resistance: ~1×10^−8
P. acnes; P. acnes strain 998
  Frequency of mutation/ml: 9.17e-08 mL⁻¹
P. acnes; P. acnes strain 1044
  Frequency of mutation/ml: 7.21e-08 mL⁻¹
P. acnes; P. acnes strain CSS3023
  Frequency of mutation/ml: 1.82e-08 mL⁻¹
P. acnes; P. acnes strain CSS3288
  Frequency of mutation/ml: 6.15e-08 mL⁻¹

— US12036312B2, “Non-aqueous topical compositions comprising a halogenated salicylanilide” (priority 2016, dated 2024)
